From patent EP2403490B1, “AN IMPROVED DRY POWDER DRUG DELIVERY SYSTEM” (MannKind Corporation, priority 2009, dated 2010) come the findings set out here.

Assay type in all cases: physicochemical
Data set [1] is described as follows: Powder flowability (Hausner ratio, compressibility index, angle of repose, critical orifice testing). The text has this: The compressibility index (Cl) can be calculated from the Hausner ratio (HR) as C1 = 100 × (1−(1/HR)). [formula]
FDKP microparticles either unmodified or containing a drug, for example insulin, constitute highly cohesive powders.

A short description of data set [2]: In vitro performance DPI 2 vs MEDTONE delivery system, laser diffraction and emitted mass (Example 7). The settings on record: fill weight 10 mg, 4 kPa.
Description: This system includes dry powder formulations, pre-metered into single-use cartridges and inserted into a high resistance, breath-powered, re-usable MEDTONE(R) inhaler. […] In vitro powder performance for these systems was compared for various parameter of inhaler performance. For DPI 2 a single discharge per cartridge was used as compared to two discharges per cartridge in the MEDTONE(R) system.
Particle sizing by laser diffraction and quantification of emitted mass as described above were used in these experiments. A laser diffraction instrument (Sympatec HELOS) was adapted with a novel pressurized inhaler chamber to facilitate analysis of powder plumes. MTDS cartridges were discharged twice per determination versus once with DPI 2.
Data set [3] in a line: Geometric particle size of emitted formulations by VMGD, laser diffraction (Example 6). The settings on record: 56 % trans. From the text: Laser diffraction of dry powder formulations emitted from dry powder inhalers is a common methodology employed to characterize the level of de-agglomeration subjected to a powder. The methodology indicates a measure of geometric size rather than aerodynamic size as occurring in industry standard impaction methodologies. Typically, the geometric size of the emitted powder includes a volumetric distribution characterized by the median particle size, VMGD. Importantly, geometric sizes of the emitted particles are discerned with heightened resolution as compared to the aerodynamic sizes provided by impaction methods. Smaller sizes are preferred and result in greater likelihood of individual particles being delivered to the pulmonary tract. Thus, differences in inhaler de-agglomeration and ultimate performance can be easier to resolve with diffraction. In these experiments, an inhaler as specified in Example 3 and a predicate inhaler are tested with laser diffraction at pressures analogous to actual patient inspiratory capacities to determine the effectiveness of the inhalation system to de-agglomerate powder formulations. […] Reported in Table 5 are a VMGD and an efficiency of the container emptying during the testing. […]

[4] abbreviates: DPI 2, single discharge, 15 cartridges.
Where [5] appears, read: MEDTONE® (MTDS), two discharges, 30 cartridges.

On to `O=C(O)/C=C/C(=O)NCCCCC1NC(=O)C(CCCCNC(=O)/C=C/C(=O)O)NC1=O` (stereo not shown) [FDKP, bis-3,6-(N-fumaryl-4-aminobutyl)-2,5-diketopiperazine], for which the angle of repose in data set [1] was 40 °. In addition, the “Ave. Geometric SD” value was 3.79 µm in data set [2] (setting [4]) and 2.94 µm in data set [2] (setting [5]). The entries for the “Ave. VMGD” value in data set [2] (setting [4]) and in data set [2] (setting [5]) were 6.84 µm and 21.21 µm, respectively. Besides, the VMGD stood at 6.800 micron in data set [3] (DPI 2, SSA 55 m2/g, pressure drop 4 kPa) and 21.200 micron in data set [3] (MEDTONE®, SSA 55, 4 kPa).
